Numbered stars: 1 amine (or outer) side, 2 acyl side, 3 side chain; on linkers, the order of the positions; unused ones are H or OH. Bridge positions count the residues as written; N and C are the ends. Square brackets hold non-standard residues; d marks the D form. Side chains are listed from the residue outwards. Peptide text beside a SMILES is read from it. I, II: the chains in the order shown. * marks the point of attachment. C18 diacid = O=C(O)CCCCCCCCCCCCCCCCC(=O)*; γGlu = O=C(O)[C@H](CCC(=O)[*:2])N[*:1]; Ac4c = NC1(C(=O)O)CCC1; AEEA = NCCOCCOCC(=O)O; Aib = CC(C)(N)C(=O)O
molecular target: T1, human GLP-1 receptor (Homo sapiens, UniProt P43220); test: GLP-1 receptor potency, CRE luciferase reporter gene assay in BHK cells; format: cell-based; settings: BHK cells expressing human GLP-1 receptor, read-out: EC50 GLP-1R
T1 construct: expressed in transfected cells; host or cells: BHK cells (parent BHKTS13), clone FCW467-12A/KZ10-1, with CRE luciferase
T1 sequence (P43220 24-463): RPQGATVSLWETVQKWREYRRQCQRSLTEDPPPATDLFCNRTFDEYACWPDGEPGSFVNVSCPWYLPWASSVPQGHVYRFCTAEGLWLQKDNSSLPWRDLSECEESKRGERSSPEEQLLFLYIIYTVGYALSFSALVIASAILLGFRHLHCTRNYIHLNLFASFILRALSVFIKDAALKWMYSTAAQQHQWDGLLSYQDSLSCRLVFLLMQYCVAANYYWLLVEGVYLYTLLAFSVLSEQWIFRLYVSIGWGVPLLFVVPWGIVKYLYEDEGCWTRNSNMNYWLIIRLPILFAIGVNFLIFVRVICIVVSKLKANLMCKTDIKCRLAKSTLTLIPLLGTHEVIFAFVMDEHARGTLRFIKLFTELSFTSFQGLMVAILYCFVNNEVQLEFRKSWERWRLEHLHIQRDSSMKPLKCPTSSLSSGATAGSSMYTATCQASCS
Method in brief: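 BHK cells stably expressing human GLP-1 receptor with CRE-luciferase reporter, 5×10EE3 cells/well in phenol red-free DMEM with 10 mM Hepes, 2% ovalbumin, 0.2% Pluronic F-68. Compounds at final 1×10EE-6 to 1×10EE-13 M, 3 h at 37° C; steadylite luminescence; EC50 by four-parameter fit, in pM.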

Row | SMILES | EC50 [pM]
1 | CC(C)C[C@H](NC(=O)[C@H](Cc1ccc(O)cc1)NC(=O)[C@H](CCCCN)NC(=O)[C@H](CO)NC(=O)[C@H](CC(C)C)NC(=O)[C@H](CC(=O)O)NC(=O)[C@H](CO)NC(=O)[C@@H](NC(=O)[C@H](Cc1ccccc1)NC(=O)[C@@H](NC(=O)CNC(=O)[C@H](Cc1c[nH]cn1)NC(=O)C(C)(C)NC(=O)[C@@H](N)Cc1c[nH]cn1)[C@@H](C)O)[C@@H](C)O)C(=O)N[C@@H](CCC(=O)O)C(=O)N[C@@H](CO)C(=O)N[C@@H](CCCCN)C(=O)N[C@@H](CCCNC(=N)N)C(=O)N[C@@H](C)C(=O)N[C@@H](CCCNC(=N)N)C(=O)N[C@@H](CCC(=O)O)C(=O)N[C@@H](Cc1ccccc1)C(=O)N[C@H](C(=O)N[C@@H](CCC(N)=O)C(=O)N[C@@H](Cc1c[nH]c2ccccc12)C(=O)N[C@@H](CC(C)C)C(=O)N[C@@H](CC(C)C)C(=O)N[C@@H](CCCCNC(=O)CC[C@H](NC(=O)CC[C@H](NC(=O)COCCOCCNC(=O)COCCOCCNC(=O)CC[C@H](NC(=O)CCCCCCCCCCCCCCCCC(=O)O)C(=O)O)C(=O)O)C(=O)O)C(=O)N[C@H](C(N)=O)[C@@H](C)O)C(C)C [Example 27, N^ε28-[(4S)-4-carboxy-4-[[(4S)-4-carboxy-4-[[2-[2-[2-[[2-[2-[2-[[(4S)-4-carboxy-4-(17-carboxyheptadecanoylamino)butanoyl]amino]ethoxy]ethoxy]acetyl]amino]ethoxy]ethoxy]acetyl]amino]butanoyl]amino]butanoyl]-[Aib2,His3,Leu10,Glu15,Lys17,Arg20,Glu21,Leu27, Lys28]-Glucagon amide] (H-H[Aib]HGTFTSDLSKYLESKRAREFVQWLLK([γGlu-γGlu-AEEA-AEEA-γGlu-C18 diacid])T-NH2; N-terminus assumed) | 4.1
2 | CC(C)C[C@H](NC(=O)[C@H](CC(=O)O)NC(=O)[C@H](CC(C)C)NC(=O)[C@H](Cc1ccc(O)cc1)NC(=O)[C@H](CCCCN)NC(=O)[C@H](CO)NC(=O)[C@H](CC(C)C)NC(=O)[C@H](CC(=O)O)NC(=O)[C@H](CO)NC(=O)[C@@H](NC(=O)[C@H](Cc1ccccc1)NC(=O)[C@@H](NC(=O)CNC(=O)[C@H](CCC(N)=O)NC(=O)C1(NC(=O)[C@@H](N)Cc2c[nH]cn2)CCC1)[C@@H](C)O)[C@@H](C)O)C(=O)N[C@@H](CCCCN)C(=O)N[C@@H](CCCNC(=N)N)C(=O)N[C@@H](C)C(=O)N[C@@H](CCCNC(=N)N)C(=O)N[C@@H](CCC(=O)O)C(=O)N[C@@H](Cc1ccccc1)C(=O)N[C@H](C(=O)N[C@@H](CCC(N)=O)C(=O)N[C@@H](Cc1c[nH]c2ccccc12)C(=O)N[C@@H](CC(C)C)C(=O)N[C@@H](CC(C)C)C(=O)N[C@@H](CCCCNC(=O)CNC(=O)[C@H](CO)NC(=O)[C@H](CCC(=O)O)NC(=O)CNC(=O)[C@H](CO)NC(=O)CC[C@H](NC(=O)CC[C@H](NC(=O)CCCCCCCCCCCCCCCCC(=O)O)C(=O)O)C(=O)O)C(=O)N[C@H](C(N)=O)[C@@H](C)O)C(C)C [Example 48] (I: H-H[Ac4c]QGTFTSDLSKYLDLKRAREFVQWLLKT-NH2 / II: {C18 diacid-γGlu-γGlu}-SGESG; amide I:28-II:C; N-terminus assumed) | 44
3 | CC(C)C[C@H](NC(=O)[C@H](Cc1ccc(O)cc1)NC(=O)[C@H](CCCCN)NC(=O)[C@H](CO)NC(=O)[C@H](CC(C)C)NC(=O)[C@H](CC(=O)O)NC(=O)[C@H](CO)NC(=O)[C@@H](NC(=O)[C@H](Cc1ccccc1)NC(=O)[C@@H](NC(=O)CNC(=O)[C@H](CCC(N)=O)NC(=O)C(C)(C)NC(=O)[C@@H](N)Cc1c[nH]cn1)[C@@H](C)O)[C@@H](C)O)C(=O)N[C@@H](CCC(=O)O)C(=O)N[C@@H](CO)C(=O)N[C@@H](CCCCN)C(=O)N[C@@H](CCCNC(=N)N)C(=O)N[C@@H](C)C(=O)N[C@@H](CCCNC(=N)N)C(=O)N[C@@H](CCC(=O)O)C(=O)N[C@@H](Cc1ccccc1)C(=O)N[C@H](C(=O)N[C@@H](CCC(N)=O)C(=O)N[C@@H](Cc1c[nH]c2ccccc12)C(=O)N[C@@H](CC(C)C)C(=O)N[C@@H](CC(C)C)C(=O)N[C@@H](CCCCNC(=O)CC[C@H](NC(=O)CC[C@H](NC(=O)[C@H](CO)NC(=O)[C@H](CCC(=O)O)NC(=O)[C@H](CO)NC(=O)CC[C@H](NC(=O)CC[C@H](NC(=O)CCCCCCCCCCCCCCCCC(=O)O)C(=O)O)C(=O)O)C(=O)O)C(=O)O)C(=O)N[C@H](C(N)=O)[C@@H](C)O)C(C)C [Example 54, N^ε28-[(4S)-4-carboxy-4-[[(4S)-4-carboxy-4-[[(2S)-2-[[(2S)-4-carboxy-2-[[(2S)-2-[[(4S)-4-carboxy-4-[[(4S)-4-carboxy-4-(17-carboxyheptadecanoylamino)butanoyl]amino]butanoyl]amino]-3-hydroxypropanoyl]amino]butanoyl]amino]-3-hydroxypropanoyl]amino]butanoyl]amino]butanoyl]-[Aib2,Leu10,Glu15,Lys17,Arg20,Glu21,Leu27,Lys28]-Glucagon amide] (H-H[Aib]QGTFTSDLSKYLESKRAREFVQWLLK([γGlu-γGlu-Ser-Glu-Ser-γGlu-γGlu-C18 diacid])T-NH2; N-terminus assumed) | 2.7
4 | CC(C)C[C@H](NC(=O)[C@H](CC(=O)O)NC(=O)[C@H](CC(C)C)NC(=O)[C@H](Cc1ccc(O)cc1)NC(=O)[C@H](CCCCN)NC(=O)[C@H](CO)NC(=O)[C@H](CC(C)C)NC(=O)[C@H](CC(=O)O)NC(=O)[C@H](CO)NC(=O)[C@@H](NC(=O)[C@H](Cc1ccccc1)NC(=O)[C@@H](NC(=O)CNC(=O)[C@H](CCC(N)=O)NC(=O)C1(NC(=O)[C@@H](N)Cc2c[nH]cn2)CCC1)[C@@H](C)O)[C@@H](C)O)C(=O)N[C@@H](CCCCN)C(=O)N[C@@H](CCCNC(=N)N)C(=O)N[C@@H](C)C(=O)N[C@@H](CCCNC(=N)N)C(=O)N[C@@H](CCC(=O)O)C(=O)N[C@@H](Cc1ccccc1)C(=O)N[C@H](C(=O)N[C@@H](CCC(N)=O)C(=O)N[C@@H](Cc1c[nH]c2ccccc12)C(=O)N[C@@H](CC(C)C)C(=O)N[C@@H](CC(C)C)C(=O)N[C@@H](CCCCNC(=O)CC[C@H](NC(=O)CC[C@H](NC(=O)COCCOCCNC(=O)COCCOCCNC(=O)CC[C@H](NC(=O)CC[C@H](NC(=O)CCCCCCCCCCCCCCCCC(=O)O)C(=O)O)C(=O)O)C(=O)O)C(=O)O)C(=O)N[C@H](C(N)=O)[C@@H](C)O)C(C)C [Example 47, N^ε28-[(4S)-4-carboxy-4-[[(4S)-4-carboxy-4-[[2-[2-[2-[[2-[2-[2-[[(4S)-4-carboxy-4-[[(4S)-4-carboxy-4-(17-carboxyheptadecanoylamino)butanoyl]amino]butanoyl]amino]ethoxy]ethoxy]acetyl]amino]ethoxy]ethoxy]acetyl]amino]butanoyl]amino]butanoyl]-[Acb2,Leu10,Leu16,Lys17,Arg20,Glu21,Leu27,Lys28]-Glucagon amide] (H-H[Ac4c]QGTFTSDLSKYLDLKRAREFVQWLLK([γGlu-γGlu-AEEA-AEEA-γGlu-γGlu-C18 diacid])T-NH2; N-terminus assumed) | 17
5 | CC(C)C[C@H](NC(=O)[C@H](CC(C)C)NC(=O)[C@H](Cc1c[nH]c2ccccc12)NC(=O)[C@H](CCC(N)=O)NC(=O)[C@@H](NC(=O)[C@H](Cc1ccccc1)NC(=O)[C@H](CCC(=O)O)NC(=O)[C@H](CCCNC(=N)N)NC(=O)[C@H](C)NC(=O)[C@H](CCCNC(=N)N)NC(=O)[C@H](CCCNC(=N)N)NC(=O)[C@H](CO)NC(=O)[C@H](CCC(=O)O)NC(=O)[C@H](CC(C)C)NC(=O)[C@H](Cc1ccc(O)cc1)NC(=O)[C@H](CCCCN)NC(=O)[C@H](CO)NC(=O)[C@H](CC(C)C)NC(=O)[C@H](CC(=O)O)NC(=O)[C@H](CO)NC(=O)[C@@H](NC(=O)[C@H](Cc1ccccc1)NC(=O)[C@@H](NC(=O)CNC(=O)[C@H](CCC(N)=O)NC(=O)C(C)(C)NC(=O)[C@@H](N)Cc1c[nH]cn1)[C@@H](C)O)[C@@H](C)O)C(C)C)C(=O)N[C@@H](CC(N)=O)C(=O)N[C@@H](CCCCNC(=O)CC[C@H](NC(=O)CC[C@H](NC(=O)COCCOCCNC(=O)CC[C@H](NC(=O)CCCCCCCCCCCCCCCCC(=O)O)C(=O)O)C(=O)O)C(=O)O)C(N)=O [Example 40, N^ε29-[(4S)-4-carboxy-4-[[(4S)-4-carboxy-4-[[2-[2-[2-[[(4S)-4-carboxy-4-(17-carboxyheptadecanoylamino)butanoyl]amino]ethoxy]ethoxy]acetyl]amino]butanoyl]amino]butanoyl]-[Aib2,Leu10,Glu15,Arg20,Glu21,Leu27,Lys29]-Glucagon amide] (H-H[Aib]QGTFTSDLSKYLESRRAREFVQWLLNK([γGlu-γGlu-AEEA-γGlu-C18 diacid])-NH2; N-terminus assumed) | 4
6 | CC(C)C[C@H](NC(=O)[C@H](Cc1ccc(O)cc1)NC(=O)[C@H](CCCCN)NC(=O)[C@H](CO)NC(=O)[C@H](CC(C)C)NC(=O)[C@H](CC(=O)O)NC(=O)[C@H](CO)NC(=O)[C@@H](NC(=O)[C@H](Cc1ccccc1)NC(=O)[C@@H](NC(=O)CNC(=O)[C@H](CCC(N)=O)NC(=O)C(C)(C)NC(=O)[C@@H](N)Cc1c[nH]cn1)[C@@H](C)O)[C@@H](C)O)C(=O)N[C@@H](CCC(=O)O)C(=O)N[C@@H](CO)C(=O)N[C@@H](CCCNC(=N)N)C(=O)N[C@@H](CCCNC(=N)N)C(=O)N[C@@H](C)C(=O)N[C@@H](CCCNC(=N)N)C(=O)N[C@@H](CCC(=O)O)C(=O)N[C@@H](Cc1ccccc1)C(=O)N[C@H](C(=O)N[C@@H](CCC(N)=O)C(=O)N[C@@H](Cc1c[nH]c2ccccc12)C(=O)N[C@@H](CC(C)C)C(=O)N[C@@H](CC(C)C)C(=O)N[C@@H](CCCCNC(=O)COCCOCCNC(=O)COCCOCCNC(=O)CC[C@H](NC(=O)CC[C@H](NC(=O)CC[C@H](NC(=O)CCCCCCCCCCCCCCCCC(=O)O)C(=O)O)C(=O)O)C(=O)O)C(=O)N[C@H](C(N)=O)[C@@H](C)O)C(C)C [Example 42, N^ε28-[2-[2-[2-[[2-[2-[2-[[(4S)-4-carboxy-4-[[(4S)-4-carboxy-4-[[(4S)-4-carboxy-4-(17-carboxyheptadecanoylamino)butanoyl]amino]butanoyl]amino]butanoyl]amino]ethoxy]ethoxy]acetyl]amino]ethoxy]ethoxy]acetyl]-[Aib2,Leu10,Glu15,Arg20,Glu21,Leu27,Lys28]-Glucagon amide] (H-H[Aib]QGTFTSDLSKYLESRRAREFVQWLLK([AEEA-AEEA-γGlu-γGlu-γGlu-C18 diacid])T-NH2; N-terminus assumed) | 3
